# Data: patent US6245816A, “Benzoylphenylurea insecticides and methods of using certain benzoylphenylureas to control ants” (priority 2000, dated 2001)
# Key:
# Assay type in all cases: in vivo
# [1] = tested on: German cockroach 2nd instars (Blittella germanica); test: German cockroach 2nd instars, limited ingestion exposure (48 hr) to treated cornmeal; conditions: for potency relative to hexaflumuron: limited exposure, at both 21 and 42 days after exposure, in words
# From the text: German cockroach 2nd instars (Blittella germanica)
# Limited ingestion exposure (48 hr) to treated cornmeal
# [2] = tested on: Pharaoh Ant (Monomorium pharionis); test: Laboratory ant bait study, Pharaoh Ant, brood reduction; conditions: 0.1% in bait, 3-4 day exposure
# Procedure: (§1) Laboratory ant bait studies were carried out with Red Imported Fire Ant (RIFA) (Solenopsis inivicta) and Pharaoh Ant (Monomorium pharionis). Chitin synthesis inhibitors, such as the compounds of the invention, control ants by killing the molting larvae and/or pupae and potentially preventing the hatching of eggs. Because adult workers are not affected, control is measured by effects on the brood. The studies involved 3-4 day exposure to bait. These limited exposure studies more accurately represent real world bait availability than continuous exposure.
# [3] = tested on: Cat Flea (Ctenocephalides felis); test: Cat flea, continuous exposure of larvae to treated media, impact on subsequent adult emergence; conditions: for efficacy relative to hexaflumuron: cat fleas, in words
# From the text: Cat Flea (Ctenocephalides felis)
# Continuous exposure of larvae to treated media, impact on subsequent adult emergence
# [4] = tested on: Red Imported Fire Ant (RIFA) (Solenopsis inivicta); test: Laboratory ant bait study, Red Imported Fire Ant, brood reduction; conditions: for Time to Achieve 50% Brood Reduction / Time to Achieve 90% Brood Reduction: RIFA, 3-4 day exposure
# Procedure: as §1
# [5] = tested on: Subterranean Termite (Reticulitermes flavipes); test: Subterranean termite, continuous exposure (56 days) to treated paper; conditions: for LC50 (ppm) 56 days / LC50 (ppm) 35 days: continuous exposure to treated paper; for potency and speed of action relative to hexaflumuron: continuous exposure, in words
# From the text: (§2) Subterranean Termite (Reticulitermes flavipes)
# Continuous exposure (56 days) to treated paper
# [6] = tested on: Subterranean Termite (Reticulitermes flavipes); test: Subterranean termite, limited exposure (7 days), mortality at 14, 28, 42 and 56 days; conditions: high rate, in words
# From the text: as §2
# Limited exposure (7 days) with mortality determined at 14, 28, 42, and 56 days
# [7] = tested on: German cockroach 2nd instars (Blattella germanica); test: German cockroach 2nd instars, continuous, low-dose ingestion exposure (treated cornmeal); conditions: for activity relative to hexaflumuron: continuous exposure; for activity relative to hexaflumuron / activities in cockroaches (Compounds 1, 2, and 3 compared): in words; for LC50 (ppm) 21 days / LC50 (ppm) 42 days: continuous ingestion exposure, treated cornmeal; for activities in cockroaches (Compounds 1, 2, and 3 compared): test not specified further, all three compounds were tested only under continuous exposure
# From the text: German cockroach 2nd instars (Blattella germanica)
# Continuous, low-dose ingestion exposure (treated cornmeal)
# [8] = tested on: Daphnia; test: Activity against Daphnia, 48 hr exposure to treated water
# [9] = limited ingestion exposure (48 hr), treated cornmeal
# [10] = continuous exposure of larvae to treated media, subsequent adult emergence
# [11] = 0.1% in bait, NA = not achieved
SMILES,potency relative to hexaflumuron [1],"LC50 (ppm) 42 days [1, 9]",efficacy relative to hexaflumuron [3],LC50 (ppm) 56 days [5] [ppm],potency and speed of action relative to hexaflumuron [5],activity relative to hexaflumuron [7],LC50 (ppm) 21 days [7] [ppm],LC50 (ppm) 42 days [7] [ppm],"activities in cockroaches (Compounds 1, 2, and 3 compared) [7]",LC50 (ppm) 35 days [5] [ppm],other results
"O=C(NC(=O)c1c(F)cccc1F)Nc1cc(Cl)c(OC(F)(F)C(F)C(F)(F)F)c(Cl)c1F (stereo not shown) [Compound 1, N-[3,5-Dichloro-2-fluoro-4-(1,1,2,3,3,3-hexafluoropropoxy)phenyl]-N'-(2,6-difluorobenzoyl)urea]",more potent than hexaflumuron,< 9.1 ppm,far more efficacious than hexaflumuron,< 0.78,more potent and quicker acting than hexaflumuron,far more active than hexaflumuron,< 2.2,< 0.78,quite similar,–,"Percent brood reduction achieved at end of study ([2]; @ 13 wks): 70%; Time to Achieve 50% Brood Reduction ([2]; NA = not achieved): 4 wks; LC50 (ppm) [3, 10]: 2.8 ppm; LC90 (ppm) [3, 10]: 22 ppm; Time to Achieve 50% Brood Reduction [4, 11]: 2 wks; Time to Achieve 90% Brood Reduction [4, 11]: 3 wks; potency relative to hexaflumuron ([4]; short exposure study with RIFA, in words): significantly more potent than hexaflumuron; mortality relative to hexaflumuron [6]: induced more mortality earlier than did hexaflumuron"
"CCN(C(=O)NC(=O)c1c(F)cccc1F)c1cc(Cl)c(OC(F)(F)C(F)C(F)(F)F)c(Cl)c1F (stereo not shown) [Compound 2, N-[3,5-Dichloro-2-fluoro-4-(1,1,2,3,3,3-hexafluoropropoxy)phenyl]-N'-(2,6-difluorobenzoyl)-N-ethylurea]",more potent than hexaflumuron,–,far more efficacious than hexaflumuron,< 0.78,more potent and quicker acting than hexaflumuron,far more active than hexaflumuron,0.35,0.26,quite similar,< 0.78,activity against Daphnia relative to Compound 1 and hexaflumuron ([8]; in vivo): much less active against Daphnia than were Compound 1 and hexaflumuron
"CCN(C(=O)Nc1cc(Cl)c(OC(F)(F)C(F)C(F)(F)F)c(Cl)c1F)C(=O)c1c(F)cccc1F (stereo not shown) [Compound 3, N-[3,5-Dichloro-2-fluoro-4-(1,1,2,3,3,3-hexafluoropropoxy)phenyl]-N'-(2,6-difluorobenzoyl)-N'-ethyl urea]",–,–,–,–,–,far more active than hexaflumuron,8.0,1.5,quite similar,–,activity against Daphnia relative to Compound 1 and hexaflumuron ([8]; in words): much less active against Daphnia than were Compound 1 and hexaflumuron
"O=C(NC(=O)c1c(F)cccc1F)Nc1cc(Cl)c(OC(F)(F)C(F)F)c(Cl)c1 [hexaflumuron, reference compound]",–,"> 10,000 ppm",–,1.3,–,–,> 200,> 200,–,> 200,"LC50 (ppm) 21 days ([1]; limited ingestion exposure (48 hr), treated cornmeal, 21 days): > 10,000 ppm; Time to Achieve 50% Brood Reduction ([4]; 0.25% in bait): 4 wks; Time to Achieve 90% Brood Reduction ([4]; 0.25% in bait): 10 wks"
